Data reported in patent US4459293A, “Method of modulating the complement system by administering bis-[β-D-glucopyranosyl-1-thio (or sulfinyl or sulfonyl)]-aryline sulfate derivatives and the cation salts thereof” (American Cyanamid Company, priority 1983, dated 1984).
Structures can show the parent of a compound that is named as a salt.

Experiments:
[1] = target: T1, activated human C1 (Homo sapiens, UniProt P09871); experiment: Test Code 026 (C1 inhibitor): protection of fluid phase human C2 from activated human C1 in the presence of C4, serial dilution assay; assay type: biochemical; details: activity in wells, twofold serial dilutions; higher well number indicates higher activity
T1 construct: fluid-phase C2 destruction in presence of C4
T1 sequence (P09871 16-688): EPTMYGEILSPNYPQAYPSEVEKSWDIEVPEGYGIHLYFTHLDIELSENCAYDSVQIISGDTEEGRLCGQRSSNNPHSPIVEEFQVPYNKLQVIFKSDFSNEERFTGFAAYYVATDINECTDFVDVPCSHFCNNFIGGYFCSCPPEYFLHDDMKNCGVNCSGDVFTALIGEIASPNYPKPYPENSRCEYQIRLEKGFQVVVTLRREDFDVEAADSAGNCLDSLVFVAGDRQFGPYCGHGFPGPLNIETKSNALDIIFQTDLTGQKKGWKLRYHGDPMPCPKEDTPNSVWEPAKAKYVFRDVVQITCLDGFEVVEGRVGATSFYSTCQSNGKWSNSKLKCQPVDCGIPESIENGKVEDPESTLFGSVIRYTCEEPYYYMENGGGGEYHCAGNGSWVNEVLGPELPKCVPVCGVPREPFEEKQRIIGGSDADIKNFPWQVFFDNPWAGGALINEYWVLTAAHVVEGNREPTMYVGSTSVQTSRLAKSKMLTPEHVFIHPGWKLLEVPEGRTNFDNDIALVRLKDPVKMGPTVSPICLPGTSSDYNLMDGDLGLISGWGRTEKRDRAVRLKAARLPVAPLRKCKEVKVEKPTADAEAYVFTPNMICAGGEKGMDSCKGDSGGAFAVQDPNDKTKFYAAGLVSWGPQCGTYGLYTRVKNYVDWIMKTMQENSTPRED
T1 sequence (P00736 18-705 partner): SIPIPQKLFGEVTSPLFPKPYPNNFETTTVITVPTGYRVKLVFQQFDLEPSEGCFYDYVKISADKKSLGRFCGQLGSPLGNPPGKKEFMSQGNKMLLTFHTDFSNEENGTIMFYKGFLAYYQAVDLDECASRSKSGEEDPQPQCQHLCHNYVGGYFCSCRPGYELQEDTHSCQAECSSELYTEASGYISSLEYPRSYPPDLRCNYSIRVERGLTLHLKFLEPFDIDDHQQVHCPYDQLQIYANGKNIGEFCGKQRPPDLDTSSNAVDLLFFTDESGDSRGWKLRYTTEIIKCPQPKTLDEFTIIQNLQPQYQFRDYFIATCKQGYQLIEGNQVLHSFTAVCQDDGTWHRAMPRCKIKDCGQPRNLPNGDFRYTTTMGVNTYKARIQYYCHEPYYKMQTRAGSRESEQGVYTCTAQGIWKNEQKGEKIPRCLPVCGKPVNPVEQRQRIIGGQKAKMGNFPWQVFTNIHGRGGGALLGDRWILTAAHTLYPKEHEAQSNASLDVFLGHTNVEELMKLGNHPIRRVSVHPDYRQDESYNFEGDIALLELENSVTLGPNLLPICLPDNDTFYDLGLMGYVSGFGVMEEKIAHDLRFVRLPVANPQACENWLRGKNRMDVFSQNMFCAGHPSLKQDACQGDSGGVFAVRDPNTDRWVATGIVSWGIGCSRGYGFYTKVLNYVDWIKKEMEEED
T1 sequence (P02745 23-245 partner): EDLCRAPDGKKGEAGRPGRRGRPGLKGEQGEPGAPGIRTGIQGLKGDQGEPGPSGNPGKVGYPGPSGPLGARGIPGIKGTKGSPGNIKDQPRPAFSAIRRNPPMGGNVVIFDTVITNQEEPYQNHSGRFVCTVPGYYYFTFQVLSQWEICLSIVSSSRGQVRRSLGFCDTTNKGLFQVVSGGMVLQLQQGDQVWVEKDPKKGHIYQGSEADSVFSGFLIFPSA
T1 sequence (P02746 28-253 partner): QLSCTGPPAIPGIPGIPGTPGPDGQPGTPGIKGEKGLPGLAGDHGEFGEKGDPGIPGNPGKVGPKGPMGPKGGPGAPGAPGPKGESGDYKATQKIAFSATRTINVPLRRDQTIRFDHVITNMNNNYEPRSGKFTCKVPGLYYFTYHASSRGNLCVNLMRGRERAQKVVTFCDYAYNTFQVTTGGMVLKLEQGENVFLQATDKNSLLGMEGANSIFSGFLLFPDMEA
T1 sequence (P02747 29-245 partner): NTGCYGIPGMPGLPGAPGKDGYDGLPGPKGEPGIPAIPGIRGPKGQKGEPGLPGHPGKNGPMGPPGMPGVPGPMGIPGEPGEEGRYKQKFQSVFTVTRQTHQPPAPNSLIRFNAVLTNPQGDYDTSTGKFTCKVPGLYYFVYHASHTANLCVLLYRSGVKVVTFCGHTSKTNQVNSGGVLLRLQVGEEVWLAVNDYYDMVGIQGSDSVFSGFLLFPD
Protocol: (§1) An active inhibitor protects C2 from C1 and C4; (ii) Test Code 035 (C3-C9 inhibitor)--This test determines the ability of the late components of human complement (C3-C9) to lyse EAC 142 in the presence of appropriate dilutions of the test compound. An active inhibitor protects EAC 142 from lysis by human C3-C9; and (iii) Cap 50 Test--Here, appropriate amounts of the test compound are added to a pool of guinea pig serum in vitro, after which the undiluted serum capillary tube assay of U.S. Pat. No. 3,876,376 is run. The concentration of compound inhibiting 50% is reported.
(§2) **Activity in wells, a serial dilution assay; higher well number indicate
(§3) higher activitiy. The serial dilutions are twofold.

[2] = test system: late components of human complement (C3-C9); experiment: Test Code 035 (C3-C9 inhibitor): protection of EAC 142 from lysis by late components of human complement; assay type: biochemical; details: activity in wells, twofold serial dilutions; higher well number indicates higher activity
Protocol: as §1, §2, §3

Cl 026 Wells [1] [Wells]	Structure (SMILES)	C-Late 035 Wells [2] [Wells]
5	CC(=O)N[C@@H]1[C@@H](OS(=O)(=O)O)[C@H](OS(=O)(=O)O)[C@@H](COS(=O)(=O)O)O[C@H]1Sc1cccc(S[C@@H]2O[C@H](COS(=O)(=O)O)[C@@H](OS(=O)(=O)O)[C@H](OS(=O)(=O)O)[C@H]2NC(C)=O)c1 [1,3-Bis-[β-D-(2-acetylamino)-glucopyranosyl-1-thio]-phenylene, hexakis(H-sulfate), hexasodium salt]	1
5	O=C(O)[C@H]1O[C@@H](Sc2cccc(S[C@@H]3O[C@H](C(=O)O)[C@@H](OS(=O)(=O)O)[C@H](OS(=O)(=O)O)[C@H]3OS(=O)(=O)O)c2)[C@H](OS(=O)(=O)O)[C@@H](OS(=O)(=O)O)[C@@H]1OS(=O)(=O)O [1,3-Bis[β-D-glucopyranosiduronic acid-1-thio]-phenylene, hexakis(H-sulfate), octasodium salt]	
4	O=S(=O)(O)OC[C@H]1O[C@@H](Sc2ccc(Oc3ccc(S[C@@H]4O[C@H](COS(=O)(=O)O)[C@@H](OS(=O)(=O)O)[C@H](OS(=O)(=O)O)[C@H]4OS(=O)(=O)O)cc3)cc2)[C@H](OS(=O)(=O)O)[C@@H](OS(=O)(=O)O)[C@@H]1OS(=O)(=O)O [Oxydi-p-phenylene bis-[1-thio-β-D-glucopyranoside], octakis(H-sulfate), octasodium salt]	
